{
  "source": "patent US8492346B2",
  "about": "“Methods of use of epsilon inhibitor compounds for the attenuation of pain” (KAI Pharmaceuticals, Inc., priority 2007, dated 2013)",
  "key": {"[1]": {"test_system": "L5 nerve transection-induced allodynia and hyperalgesia", "experiment": "Chung (L5 spinal nerve transection) neuropathic pain model", "type": "in vivo, rat", "excerpt": "The Chung (L5 nerve transection) is a well-known model for chronic (neuropathic) pain. […]\nThe activity of KAI-1678 has been evaluated in the L5 transection model or modified Chung model, is a mononeuropathic pain model in which the L5 spinal nerve is surgically transected, resulting in rapid development of sustained pain. The activity of KAI-1678 in this model is described below.\nThe rat L5 spinal nerve transection model has been used to evaluate the response to modulators of neuropathic pain. In the studies described below surgical transaction of the L5 spinal nerve was used to elicit mechanical allodynia, mechanical hyperalgesia and thermal hyperalgesia that characterize neuropathic pain. In this model, the neuropathic effects develop within a day and are reported to last for 1-2 months.\nMechanical allodynia and mechanical hyperalgesia are measured using calibrated von Frey filaments to elicit a flexion withdrawal response (paw withdrawal response) by pressing them against the plantar surface of the hindpaw on the same side as the nerve transection. The 2 g, 6 g and 10 g von Frey filaments are used to assess allodynia since these stimuli are normally innocuous to naïve animals. The 15 g, 26 g and 60 g filaments are used to assess algesia (response to noxious stimulus) since these stimuli elicit paw withdrawals in naïve animals and are considered to represent painful stimuli.\nThe existence of the disease state following nerve transection is confirmed based on tests performed with the 2 g and the 10 g filaments.\nOnce the disease state is confirmed, evaluation of the extent of mechanical allodynia or hyperalgesia is determined by observing the number of paw withdrawals in responsse to 5 tests with each of the von Frey filaments. Results are typically expressed either as the total number of paw withdrawals for the allodynic filaments (2 g, 6 g and 10 g for a total of 15 tests) or the algesic filaments (15 g, 26 g and 60 g for a total of 15 tests), or as the lowest filament to which the animals in a group have an average positive response defined as ≧3 withdrawals out of 5 tests with a particular filament. […]\nRats given an L5 spinal nerve transection were treated with a bolus subcutaneous dose of KAI-1678 ranging from 0.00025-0.25 mcg/rat (˜0.001-1 mcg/kg) on day 7 post-transection. The degree of mechanical allodynia and hyperalgesia was evaluated based on the number of paw withdrawals (out of 30) in response to 6 different von Frey filaments before and up to 3 hours after administration of the compound."}, "[2]": {"test_system": "incision pain", "experiment": "Brennan incision model", "type": "in vivo", "settings": "preliminary, doses similar to carrageenan model", "excerpt": "While experiments with these models are continuing, additional work is being done in other pain models."}, "[3]": {"settings": "subcutaneous bolus 0.1 and 1 mcg/kg"}},
  "data": [
    {"substance": "Ac-EAVSLKPTGGYGRKKRRQRRR-NH2 [KAI-1678]", "values": [
      {"measurement": "Mechanical allodynia, 10 g filament", "setting": "[1]; minipump 0.025 and 0.25 mcg/day, lasted until Day 7 post-pump implantation", "value": "nearly complete reversal of mechanical allodynia"},
      {"measurement": "Duration of anti-hyperalgesic effect", "setting": "[1]; [3]", "value": "at least 2 hours"},
      {"measurement": "Mechanical hyperalgesia, 15 g, 26 g and 60 g von Frey filaments", "setting": "[1]; [3]", "value": "completely reverses mechanical hyperalgesia"},
      {"measurement": "Doses giving dose-dependent decrease in mechanical allodynia and mechanical hyperalgesia", "setting": "[1]; subcutaneous bolus, day 7 post-transection, FIG. 25", "value": "≥ 0.01", "unit": "µg/kg"},
      {"measurement": "Potency relative to carrageenan-induced inflammatory pain model", "setting": "[1]; subcutaneous infusion", "value": "about 1000 fold"},
      {"measurement": "Dose rates substantially reducing mechanical allodynia", "setting": "[1]; subcutaneous osmotic minipump, 10 g filament, FIG. 26", "value": "≥ 0.0025", "unit": "µg/day"},
      {"measurement": "Activity in Brennan incision model", "setting": "[2]", "value": "also active in these models"}
    ]}
  ]
}
